Measured values from the NIST ThermoML archive (doi:10.1007/s10765-006-0056-z).
± gives the expanded uncertainty stated by the source.

Test: molar heat capacity at constant volume; xn = mol fraction of the nth substance listed
Details: Fluid (supercritical or subcritical phases), Isochoric Heat Capacity Apparatus

CCCCCCCCCC [decane] + O=C=O
Details | molar heat capacity at constant volume [J/K/mol]
485.62 K, Mass density=375 kg/m3, x1 = 0.178 | 481.74 ± 9.7
486.19 K, Mass density=374.7 kg/m3, x1 = 0.095 | 337.46 ± 6.8
486.48 K, Mass density=201.8 kg/m3, x1 = 0.095 | 412.09 ± 8.3
486.76 K, Mass density=375 kg/m3, x1 = 0.178 | 484.88 ± 9.7
486.96 K, Mass density=131.5 kg/m3, x1 = 0.095 | 529.99 ± 11
486.96 K, Mass density=201.8 kg/m3, x1 = 0.095 | 409.43 ± 8.2
487.15 K, Mass density=155 kg/m3, x1 = 0.095 | 472.85 ± 9.4
487.15 K, Mass density=201.8 kg/m3, x1 = 0.095 | 398.22 ± 7.9
487.34 K, Mass density=155 kg/m3, x1 = 0.095 | 461.86 ± 9.2
487.53 K, Mass density=155 kg/m3, x1 = 0.095 | 453.38 ± 9.1
487.72 K, Mass density=155 kg/m3, x1 = 0.095 | 442.23 ± 8.9
487.96 K, Mass density=155 kg/m3, x1 = 0.095 | 446.71 ± 9
488.19 K, Mass density=155 kg/m3, x1 = 0.095 | 447.14 ± 9
488.49 K, Mass density=176.7 kg/m3, x1 = 0.095 | 436.9 ± 8.7
488.58 K, Mass density=176.7 kg/m3, x1 = 0.095 | 427.94 ± 8.5
488.68 K, Mass density=176.7 kg/m3, x1 = 0.095 | 434.18 ± 8.7
488.82 K, Mass density=339.4 kg/m3, x1 = 0.178 | 500.32 ± 10
488.87 K, Mass density=176.7 kg/m3, x1 = 0.095 | 431.72 ± 8.6
489.06 K, Mass density=176.7 kg/m3, x1 = 0.095 | 425.91 ± 8.5
489.44 K, Mass density=339.4 kg/m3, x1 = 0.178 | 498.78 ± 10
490.01 K, Mass density=408.8 kg/m3, x1 = 0.178 | 466.06 ± 9.3
490.58 K, Mass density=398.3 kg/m3, x1 = 0.095 | 337.25 ± 6.7
491.54 K, Mass density=281.4 kg/m3, x1 = 0.095 | 350.21 ± 7
493.44 K, Mass density=339.4 kg/m3, x1 = 0.178 | 492.82 ± 9.8
493.44 K, Mass density=375 kg/m3, x1 = 0.178 | 478.92 ± 9.6
493.63 K, Mass density=320.2 kg/m3, x1 = 0.095 | 344.98 ± 6.9
494.29 K, Mass density=339.4 kg/m3, x1 = 0.178 | 493.86 ± 9.9
494.39 K, Mass density=375 kg/m3, x1 = 0.178 | 481.74 ± 9.7
494.76 K, Mass density=87 kg/m3, x1 = 0.095 | 750.57 ± 15
494.95 K, Mass density=374.7 kg/m3, x1 = 0.095 | 342.85 ± 6.9
495.33 K, Mass density=176.7 kg/m3, x1 = 0.095 | 423.94 ± 8.5
495.52 K, Mass density=241 kg/m3, x1 = 0.095 | 368.51 ± 7.4
495.52 K, Mass density=408.8 kg/m3, x1 = 0.178 | 468.89 ± 9.3
496.56 K, Mass density=131.5 kg/m3, x1 = 0.095 | 548.39 ± 11
497.42 K, Mass density=310.8 kg/m3, x1 = 0.178 | 516 ± 10
497.51 K, Mass density=310.8 kg/m3, x1 = 0.178 | 512.93 ± 10
497.6 K, Mass density=310.8 kg/m3, x1 = 0.178 | 514.22 ± 10
499.87 K, Mass density=110.8 kg/m3, x1 = 0.095 | 615.07 ± 12
499.87 K, Mass density=155 kg/m3, x1 = 0.095 | 463.68 ± 9.3
500.06 K, Mass density=375 kg/m3, x1 = 0.178 | 479.47 ± 9.6
500.9 K, Mass density=310.8 kg/m3, x1 = 0.178 | 505.18 ± 10
500.9 K, Mass density=398.3 kg/m3, x1 = 0.095 | 339.7 ± 6.8
501.75 K, Mass density=310.8 kg/m3, x1 = 0.178 | 507.27 ± 10
502.88 K, Mass density=408.8 kg/m3, x1 = 0.178 | 473.26 ± 9.5
503.07 K, Mass density=339.4 kg/m3, x1 = 0.178 | 489.49 ± 9.8
503.82 K, Mass density=339.4 kg/m3, x1 = 0.178 | 492.32 ± 9.8
504.88 K, Mass density=284.3 kg/m3, x1 = 0.178 | 533.78 ± 11
505.5 K, Mass density=201.8 kg/m3, x1 = 0.095 | 397.32 ± 7.9
505.96 K, Mass density=284.3 kg/m3, x1 = 0.178 | 524.24 ± 11
506.25 K, Mass density=374.7 kg/m3, x1 = 0.095 | 343.97 ± 6.9
506.32 K, Mass density=284.3 kg/m3, x1 = 0.178 | 521.66 ± 10
507.56 K, Mass density=320.2 kg/m3, x1 = 0.095 | 346.42 ± 6.9
508.72 K, Mass density=284.3 kg/m3, x1 = 0.178 | 513.42 ± 10
509.65 K, Mass density=284.3 kg/m3, x1 = 0.178 | 513.42 ± 10
512.22 K, Mass density=339.4 kg/m3, x1 = 0.178 | 488.69 ± 9.8
512.4 K, Mass density=241 kg/m3, x1 = 0.095 | 370.11 ± 7.4
512.96 K, Mass density=339.4 kg/m3, x1 = 0.178 | 489.49 ± 9.8
513.52 K, Mass density=155 kg/m3, x1 = 0.095 | 469.92 ± 9.4
513.7 K, Mass density=176.7 kg/m3, x1 = 0.095 | 436.2 ± 8.7
514.1 K, Mass density=110.8 kg/m3, x1 = 0.095 | 628.94 ± 13
515.19 K, Mass density=281.4 kg/m3, x1 = 0.095 | 353.36 ± 7
515.37 K, Mass density=398.3 kg/m3, x1 = 0.095 | 347.33 ± 6.9
515.86 K, Mass density=131.5 kg/m3, x1 = 0.095 | 553.72 ± 11
516.11 K, Mass density=87 kg/m3, x1 = 0.095 | 740.97 ± 15
516.76 K, Mass density=83.3 kg/m3, x1 = 0.178 | 975.91 ± 19
517.48 K, Mass density=83.3 kg/m3, x1 = 0.178 | 984.15 ± 20
517.59 K, Mass density=374.7 kg/m3, x1 = 0.095 | 348.19 ± 7
517.68 K, Mass density=310.8 kg/m3, x1 = 0.178 | 496.69 ± 10
518.51 K, Mass density=310.8 kg/m3, x1 = 0.178 | 499.76 ± 10
519.25 K, Mass density=155 kg/m3, x1 = 0.095 | 471.73 ± 9.4
520.73 K, Mass density=117.8 kg/m3, x1 = 0.178 | 788.7 ± 16
521.28 K, Mass density=110.8 kg/m3, x1 = 0.095 | 622.54 ± 12
522.57 K, Mass density=320.2 kg/m3, x1 = 0.095 | 352.88 ± 7
523.12 K, Mass density=281.4 kg/m3, x1 = 0.095 | 355.33 ± 7.1
523.67 K, Mass density=164.2 kg/m3, x1 = 0.178 | 675.66 ± 14
524.03 K, Mass density=164.2 kg/m3, x1 = 0.178 | 667.67 ± 13
524.03 K, Mass density=201.8 kg/m3, x1 = 0.095 | 397.1 ± 7.9
524.22 K, Mass density=320.2 kg/m3, x1 = 0.095 | 351.33 ± 7
524.4 K, Mass density=164.2 kg/m3, x1 = 0.178 | 659.98 ± 13
524.77 K, Mass density=83.3 kg/m3, x1 = 0.178 | 982.86 ± 20
526.6 K, Mass density=117.8 kg/m3, x1 = 0.178 | 779.17 ± 16
528.43 K, Mass density=117.8 kg/m3, x1 = 0.178 | 775.54 ± 15
529.61 K, Mass density=164.2 kg/m3, x1 = 0.178 | 637.53 ± 13
529.71 K, Mass density=117.8 kg/m3, x1 = 0.178 | 768.84 ± 15
530.07 K, Mass density=164.2 kg/m3, x1 = 0.178 | 636.24 ± 13
530.25 K, Mass density=241 kg/m3, x1 = 0.095 | 375.44 ± 7.5
530.62 K, Mass density=164.2 kg/m3, x1 = 0.178 | 631.87 ± 13
530.67 K, Mass density=339.4 kg/m3, x1 = 0.178 | 492.82 ± 9.8
531.4 K, Mass density=339.4 kg/m3, x1 = 0.178 | 493.86 ± 9.9
532.44 K, Mass density=374.7 kg/m3, x1 = 0.095 | 354.69 ± 7.1
532.99 K, Mass density=87 kg/m3, x1 = 0.095 | 727.63 ± 14
533.17 K, Mass density=117.8 kg/m3, x1 = 0.178 | 758.57 ± 15
533.71 K, Mass density=155 kg/m3, x1 = 0.095 | 467.68 ± 9.3
534.08 K, Mass density=117.8 kg/m3, x1 = 0.178 | 754.94 ± 15
535.31 K, Mass density=131.5 kg/m3, x1 = 0.095 | 565.99 ± 11
535.39 K, Mass density=83.3 kg/m3, x1 = 0.178 | 958.14 ± 19
535.89 K, Mass density=164.2 kg/m3, x1 = 0.178 | 631.13 ± 13
536.16 K, Mass density=83.3 kg/m3, x1 = 0.178 | 972.28 ± 19
536.98 K, Mass density=83.3 kg/m3, x1 = 0.178 | 973.82 ± 19
536.98 K, Mass density=110.8 kg/m3, x1 = 0.095 | 693.49 ± 14
537.7 K, Mass density=320.2 kg/m3, x1 = 0.095 | 358.27 ± 7.1
538.25 K, Mass density=281.4 kg/m3, x1 = 0.095 | 361.63 ± 7.3
543.48 K, Mass density=201.8 kg/m3, x1 = 0.095 | 402.01 ± 8.1
543.48 K, Mass density=310.8 kg/m3, x1 = 0.178 | 509.05 ± 10
543.84 K, Mass density=176.7 kg/m3, x1 = 0.095 | 450.93 ± 9
544.11 K, Mass density=310.8 kg/m3, x1 = 0.178 | 514.46 ± 10
544.38 K, Mass density=284.3 kg/m3, x1 = 0.178 | 517.29 ± 10
546.37 K, Mass density=117.8 kg/m3, x1 = 0.178 | 758.81 ± 15
546.63 K, Mass density=83.3 kg/m3, x1 = 0.178 | 971.79 ± 19
547.62 K, Mass density=83.3 kg/m3, x1 = 0.178 | 992.89 ± 20
550.12 K, Mass density=87 kg/m3, x1 = 0.095 | 712.69 ± 14
550.12 K, Mass density=320.2 kg/m3, x1 = 0.095 | 360.72 ± 7.2
550.48 K, Mass density=281.4 kg/m3, x1 = 0.095 | 369.42 ± 7.4
550.84 K, Mass density=155 kg/m3, x1 = 0.095 | 462.13 ± 9.2
554.06 K, Mass density=164.2 kg/m3, x1 = 0.178 | 623.38 ± 12
556.37 K, Mass density=131.5 kg/m3, x1 = 0.095 | 553.72 ± 11
556.91 K, Mass density=83.3 kg/m3, x1 = 0.178 | 997.75 ± 20
559.75 K, Mass density=241 kg/m3, x1 = 0.095 | 388.83 ± 7.8
560.29 K, Mass density=281.4 kg/m3, x1 = 0.095 | 373.42 ± 7.5
561.17 K, Mass density=176.7 kg/m3, x1 = 0.095 | 448.69 ± 9
561.35 K, Mass density=320.2 kg/m3, x1 = 0.095 | 369.84 ± 7.4
568.43 K, Mass density=241 kg/m3, x1 = 0.095 | 393.53 ± 7.9
